The record followed here is patent US7439356B2, “Substituted indan derivatives” (AstraZeneca AB, priority 1997, dated 2008).

Regarding `CN1CCN(c2cccc3c2CC(C(=O)Nc2ccc(N4CCOCC4)cc2)C3)CC1` (stereo not shown) [Example 4, 4-(4-Methylpiperazin-1-yl)-N-(4-morpholinophenyl)indan-2-carboxamide], the melting point – broadly, the temperature of the solid-liquid transition – lay in the range of 248 to 249 °C.
